Starred links: 1 amine or outer side, 2 acyl side, 3 side chain; linkers in the order of their positions; H or OH if unused. Non-standard residues stand in square brackets, D forms with d. Residues, ends and D or L forms follow the SMILES beside them. ξ: configuration not given here. *: point of attachment. Tetrahydroisoquinolin(2-yl) = c1ccc2c(c1)CCN(*)C2; NH(1S-phenylpropyl) = CC[C@H](N*)c1ccccc1; NH(1S-phenylethyl) = C[C@H](N*)c1ccccc1; X21 = CCCN(N*)C(=O)CCc1nc(-c2ccccn2)no1; X11 = CCCN(N*)C(=O)[C@H](O)c1ccccc1; X20 = O=C(N(CC(F)(F)F)N[*:1])[*:2]; X1 = CCCC(N*)C(=O)C(F)(F)C(F)(F)F; X15 = CCCC(N[*:1])C(=O)C(=O)[*:2]; Hyp = O=C(O)[C@@H]1C[C@@H](O)CN1; NHPiperonyl = c1cc2c(cc1CN*)OCO2; azaNva = CCCN(N[*:1])C(=O)[*:2]; X18 = CCCN(N*)C(=S)NCc1ccccc1; NMe(benzyl) = CN(Cc1ccccc1)*; Suc = O=C(CCC(=O)[*:2])[*:1]; X12 = C[C@H](N*)c1nnn[nH]1; Nva = CCC[C@H](N)C(=O)O; X14 = c1ccc2c(c1)CCN2*; X16 = CCCCN(N*)C(N)=O; NHBn = c1ccc(CN*)cc1; X13 = CCCN(N*)C(N)=O; X19 = CCCN(N*)C(C)=O; ξNva = CCCC(N)C(=O)O; Bn = c1ccc(C*)cc1
Target: T1, HCV NS3 protease type 1b/NS4A cofactor peptide (Hepatitis C virus genotype 1b, UniProt P26663)
T1 construct: recombinant HCV NS3 protease (amino acid 1027 to 1206) was cloned; made in house; host or cells: E. coli BL21(DE3)pLysS
T1 sequence (P26663 1027-1206, other chains not shown): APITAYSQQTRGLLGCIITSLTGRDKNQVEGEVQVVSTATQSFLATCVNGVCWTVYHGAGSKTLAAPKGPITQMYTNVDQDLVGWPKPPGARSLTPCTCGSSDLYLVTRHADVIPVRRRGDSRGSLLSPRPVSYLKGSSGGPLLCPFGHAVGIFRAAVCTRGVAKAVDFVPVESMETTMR
Assay: biochemical
Design: species or system hepatitis C virus (HCV) genotype 1b
Details: not given
From the text: a) Cloning, expression and purification of the recombinant HCV NS3 protease type lb
Serum from an HCV-infected patient was obtained through an external collaboration (Bernard Willems MD, Hopital St-Luc, Montreal, Canada and Dr. Donald Murphy, Laboratoire de Sante Publique du Quebec, Ste-Anne de Bellevue, Canada). An engineered full-length cDNA template of the HCV genome was constructed from DNA fragments obtained by reverse transcription-PCR (RT-PCR) of serum RNA and using specific primers selected on the basis of homology between other genotype lb strains. […] A DNA fragment encoding the polyprotein precursor (NS3/NS4A/NS4B/NS5A/NS5B) was generated by PCR and introduced into eucaryotic expression vectors.
The NS3 protease expression in E. coli BL21(DE3)pLysS was induced by incubation with 1 mM IPTG for 3 h at 22° C. […] The cells were resuspended in lysis buffer (3.0 mL/g) consisting of 25 mM sodium phosphate, pH 7.5, 10% glycerol (v/v), 1 mM EDTA, 0.01% NP-40 and stored at -80° C. Cells were thawed and homogenized following the addition of 5 mM DTT. Magnesium chloride and DNase were then added to the homogenate at final concentrations of 20 mM and 20 μg/mL respectively. After a 25 min incubation at 4° C., the homogenate was sonicated and centrifuged at 15000× g for 30 min at 4° C. The pH of the supernatant was then adjusted to 6.5 using a 1M sodium phosphate solution.
Briefly, the supernatant from the bacterial extract was loaded on a SP HiTrap column (Pharmacia) previously equilibrated at a flow rate of 2 mL/min in buffer A (50 mM sodium phosphate, pH 6.5, 10% glycerol, 1 mM EDTA, 5 mM DTT, 0.01% NP-40). The column was then washed with buffer A containing 0.15 M NaCl and the protease eluted by applying 10 column volumes of a linear 0.15 to 0.3 M NaCl gradient. NS3 protease-containing fractions were pooled and diluted to a final NaCl concentration of 0.1 M. The enzyme was further purified on a HiTrap Heparin column (Pharmacia) equilibrated in buffer B (25 mM sodium phosphate, pH 7.5, 10% glycerol, 5 mM DTT, 0.01% NP-40). The sample was loaded at a flow rate of 3 mL/min. The column was then washed with buffer B containing 0.15 M NaCl at a flow rate of 1.5 mL/min. Two step washes were performed in the presence of buffer B containing 0.3 or 1M NaCl. […] Finally, the NS3 protease-containing fractions were applied on a Superdex 75 HiLoad 16/60 column (Pharmacia) equilibrated in buffer B containing 0.3 M NaCl.
The enzyme was stored at -80° C. and was thawed on ice and diluted just prior to use.
Recombinant HCV NS3 Protease/NS4A Cofactor Peptide Radiometric Assay
The enzyme was stored at -80° C., thawed on ice and diluted just prior to use in the assay buffer containing the NS4A cofactor peptide.
The substrate used for the NS3 protease/[…] cofactor peptide radiometric assay, DDIVPC-SMSYTW, is cleaved between the cysteine and the serine residues by the enzyme. The sequence DDIVPC-SMSYTW corresponds to the NS5A/NS5B natural cleavage site in which the cysteine residue in […] has been substituted for a proline. […] (molar ratio enzyme: cofactor 1:100) in the absence or presence of inhibitors. The separation of substrate from products is performed by adding avidin-coated agarose beads to the assay mixture followed by filtration.
Assay buffer: 50 mM Tris HCl, pH 7.5, 30% (w/v) glycerol, 1 mg/mL BSA, 1 mM TCEP (TCEP added just prior to use from a 1 M stock solution in water)
Substrate: […], […] final concentration (from a 2 mM stock solution in DMSO stored at -20° C. to avoid oxidation).

Compound | IC50
CCCC(NC(=O)[C@@H]1C[C@@H](OCc2ccccc2)CN1C(=O)[C@@H](NC(=O)[C@@H](NC(=O)[C@@H](CCC(=O)O)NC(=O)[C@H](CC(=O)O)NC(C)=O)[C@@H](C)CC)C(C)C)C(=O)C(F)(F)C(F)(F)F (some centres unmarked) [Compound 102] (Ac-D[dE]IV[Hyp](Bn)-X1) | 0.21 µM
CCCC(NC(=O)[C@@H]1C[C@@H](OCc2ccccc2)CN1C(=O)[C@@H](NC(=O)[C@@H](NC(=O)[C@@H](CCC(=O)O)NC(=O)[C@H](CC(=O)O)NC(C)=O)[C@@H](C)CC)C(C)C)C(=O)C(=O)NCc1ccccc1 (some centres unmarked) [Compound 103] (Ac-D[dE]IV[Hyp](Bn)[X15]-NHBn) | 0.023 µM
CCCC(NC(=O)[C@@H]1C[C@@H](OCc2ccccc2)CN1C(=O)[C@@H](NC(=O)[C@@H](NC(=O)[C@@H](CCC(=O)O)NC(=O)[C@H](CC(=O)O)NC(C)=O)[C@@H](C)CC)C(C)C)C(N)=O (some centres unmarked) [Compound 105] (Ac-D[dE]IV[Hyp](Bn)[ξNva]-NH2) | 54 µM
CCC[C@H](NC(=O)[C@@H]1C[C@@H](OCc2ccccc2)CN1C(=O)[C@@H](NC(=O)[C@@H](NC(=O)[C@@H](CCC(=O)O)NC(=O)[C@H](CC(=O)O)NC(C)=O)[C@@H](C)CC)C(C)C)C(=O)NCc1ccccc1 [Compound 107] (Ac-D[dE]IV[Hyp](Bn)[Nva]-NHBn) | 3 µM
CCCC(NC(=O)[C@@H]1C[C@@H](OCc2ccccc2)CN1C(=O)[C@@H](NC(=O)[C@@H](NC(=O)[C@@H](CCC(=O)O)NC(=O)[C@H](CC(=O)O)NC(C)=O)[C@@H](C)CC)C(C)C)C(=O)N1CCc2ccccc2C1 (some centres unmarked) [Compound 111] (Ac-D[dE]IV[Hyp](Bn)[ξNva]-{Tetrahydroisoquinolin(2-yl)}) | 20 µM
CCCC(NC(=O)[C@@H]1C[C@@H](OCc2ccccc2)CN1C(=O)[C@@H](NC(=O)[C@@H](NC(C)=O)C1CCCCC1)C(C)C)C(=O)C(=O)NCc1ccncc1 (some centres unmarked) [Compound 116] | 25 µM
CCCN(NC(=O)[C@@H]1C[C@@H](OCc2ccccc2)CN1C(=O)[C@@H](NC(=O)[C@@H](NC(=O)[C@@H](CCC(=O)O)NC(=O)[C@H](CC(=O)O)NC(C)=O)[C@@H](C)CC)C(C)C)C(=O)NCc1ccccc1 [Compound 203] (Ac-D[dE]IV[Hyp](Bn)[azaNva]-NHBn) | 0.59 µM
CCCN(NC(=O)[C@@H]1C[C@@H](OCc2ccccc2)CN1C(=O)[C@@H](NC(=O)[C@@H](NC(=O)[C@@H](CCC(=O)O)NC(=O)[C@H](CC(=O)O)NC(C)=O)[C@@H](C)CC)C(C)C)C(=O)NCC(=O)O [Compound 207] (Ac-D[dE]IV[Hyp](Bn)[azaNva]G-OH) | 3.75 µM
CCCN(NC(=O)[C@@H]1C[C@@H](OCc2ccccc2)CN1C(=O)[C@@H](NC(=O)[C@@H](NC(=O)[C@@H](CCC(=O)O)NC(=O)[C@H](CC(=O)O)NC(C)=O)[C@@H](C)CC)C(C)C)C(C)=O [Compound 208] (Ac-D[dE]IV[Hyp](Bn)-X19) | 14.5 µM
CCCN(NC(=O)[C@@H]1C[C@@H](OCc2ccccc2)CN1C(=O)[C@@H](NC(=O)[C@@H](NC(=O)[C@@H](CCC(=O)O)NC(=O)[C@H](CC(=O)O)NC(C)=O)[C@@H](C)CC)C(C)C)C(N)=O [Compound 209] (Ac-D[dE]IV[Hyp](Bn)-X13) | 20.5 µM
CCCCN(NC(=O)[C@@H]1C[C@@H](OCc2ccccc2)CN1C(=O)[C@@H](NC(=O)[C@@H](NC(=O)[C@@H](CCC(=O)O)NC(=O)[C@H](CC(=O)O)NC(C)=O)[C@@H](C)CC)C(C)C)C(N)=O [Compound 211] (Ac-D[dE]IV[Hyp](Bn)-X16) | 47 µM
CCCN(NC(=O)[C@@H]1C[C@@H](OCc2ccccc2)CN1C(=O)[C@@H](NC(=O)[C@@H](NC(=O)[C@@H](CCC(=O)O)NC(=O)[C@H](CC(=O)O)NC(C)=O)[C@@H](C)CC)C(C)C)C(=O)N[C@@H](CC)c1ccccc1 [Compound 214] (Ac-D[dE]IV[Hyp](Bn)[azaNva]-{NH(1S-phenylpropyl)}) | 0.44 µM
CCCN(NC(=O)[C@@H]1C[C@@H](OCc2ccccc2)CN1C(=O)[C@@H](NC(=O)[C@@H](NC(=O)[C@@H](CCC(=O)O)NC(=O)[C@H](CC(=O)O)NC(C)=O)[C@@H](C)CC)C(C)C)C(=O)[C@H](O)c1ccccc1 [Compound 216] (Ac-D[dE]IV[Hyp](Bn)-X11) | 9.6 µM
CCCN(NC(=O)[C@@H]1CCCN1C(=O)[C@@H](NC(=O)[C@@H](NC(=O)[C@@H](CC(=O)O)NC(=O)CCC(=O)O)[C@@H](C)CC)C(C)C)C(=O)N[C@@H](C)c1ccccc1 [Compound 220] (Suc-[dD]IVP[azaNva]-{NH(1S-phenylethyl)}) | 6.9 µM
CCCN(NC(=O)[C@@H]1C[C@@H](OCc2ccccc2)CN1C(=O)[C@@H](NC(=O)[C@@H](NC(=O)[C@@H](CCC(=O)O)NC(=O)[C@H](CC(=O)O)NC(C)=O)[C@@H](C)CC)C(C)C)C(=O)N(C)Cc1ccccc1 [Compound 223] (Ac-D[dE]IV[Hyp](Bn)[azaNva]-{NMe(benzyl)}) | 11 µM
CCCN(NC(=O)[C@@H]1C[C@@H](OCc2ccccc2)CN1C(=O)[C@@H](NC(=O)[C@@H](NC(=O)[C@@H](CCC(=O)O)NC(=O)[C@H](CC(=O)O)NC(C)=O)[C@@H](C)CC)C(C)C)C(=S)NCc1ccccc1 [Compound 224] (Ac-D[dE]IV[Hyp](Bn)-X18) | 5 µM
CCCN(NC(=O)[C@@H]1C[C@@H](OCc2ccccc2)CN1C(=O)[C@@H](NC(=O)[C@@H](NC(=O)[C@@H](CCC(=O)O)NC(=O)[C@H](CC(=O)O)NC(C)=O)[C@@H](C)CC)C(C)C)C(=O)N1CCc2ccccc21 [Compound 226] (Ac-D[dE]IV[Hyp](Bn)[azaNva]-X14) | 6.3 µM
CCCN(NC(=O)[C@@H]1C[C@@H](OCc2ccccc2)CN1C(=O)[C@@H](NC(=O)[C@@H](NC(C)=O)C1CCCCC1)C(C)C)C(=O)C(=O)O [Compound 227] | 39.5 µM
CC[C@H](C)[C@H](NC(=O)[C@@H](CCC(=O)O)NC(=O)[C@H](CC(=O)O)NC(C)=O)C(=O)N[C@H](C(=O)N1C[C@H](OCc2ccccc2)C[C@H]1C(=O)NN(CC(F)(F)F)C(=O)N[C@@H](C)c1ccccc1)C(C)C [Compound 228] (Ac-D[dE]IV[Hyp](Bn)[X20]-{NH(1S-phenylethyl)}) | 0.63 µM
CCCN(NC(=O)[C@@H]1C[C@@H](OCc2ccccc2)CN1C(=O)[C@@H](NC(=O)[C@@H](NC(=O)[C@@H](CCC(=O)O)NC(=O)[C@H](CC(=O)O)NC(C)=O)[C@@H](C)CC)C(C)C)C(=O)NCc1ccc2c(c1)OCO2 [Compound 231] (Ac-D[dE]IV[Hyp](Bn)[azaNva]-NHPiperonyl) | 0.5 µM
CCCN(NC(=O)[C@@H]1C[C@@H](OCc2ccccc2)CN1C(=O)[C@@H](NC(=O)[C@@H](NC(=O)[C@@H](CCC(=O)O)NC(=O)[C@H](CC(=O)O)NC(C)=O)[C@@H](C)CC)C(C)C)C(=O)CCc1nc(-c2ccccn2)no1 [Compound 232] (Ac-D[dE]IV[Hyp](Bn)-X21) | 3.2 µM
CCCN(NC(=O)[C@@H]1C[C@@H](OCc2ccccc2)CN1C(=O)[C@@H](NC(=O)[C@@H](NC(=O)[C@@H](CCC(=O)O)NC(=O)[C@H](CC(=O)O)NC(C)=O)[C@@H](C)CC)C(C)C)C(=O)N[C@@H](C)c1nnn[nH]1 [Compound 233] (Ac-D[dE]IV[Hyp](Bn)[azaNva]-X12) | 1.5 µM

Same assay, conditions: IC50: concentration required to obtain 50% inhibition in the NS3 protease/NS4A cofactor peptide radiometric assay, enzyme:cofactor 1:100, 40 min at 23° C.

Compound | IC50
CCCC(NC(=O)[C@@H]1C[C@@H](OCc2ccccc2)CN1C(=O)[C@@H](NC(=O)[C@@H](NC(=O)[C@@H](CCC(=O)O)NC(=O)[C@H](CC(=O)O)NC(C)=O)[C@@H](C)CC)C(C)C)P(=O)(Oc1ccccc1)Oc1ccccc1 (single isomer, unassigned) [Compound 302] | 26 µM

Reference: patent US6143715A, “Hepatitis C inhibitor peptide analogues” (priority 1998, dated 2000)
